Biological target: tau (Homo sapiens, UniProt P10636)
Assay: displacement tau binding assay in AD brain homogenates with [^3H]-6
Experimental: The frozen human brain samples of Alzheimer's disease (AD) were purchased from Analytic Biological Services Inc. They were postmortem tissue from donors with clinical diagnosis of AD. As much of the white matter was dissected out of the frontal cortex in order to enrich the tissue preparations for gray matter. Brain homogenates of gray matter enriched frontal cortex were prepared by homogenizing the tissue in ice cold Phosphate Buffered Saline (PBS), pH 7.4 at 80 mg wet weight tissue per 1 mL for 45 seconds at 4° C. on setting 16 of Polytron. The homogenate was further diluted with ice cold PBS to 30 mg wet weight tissue per 1 mL and homogenized for an additional minute as described above. Homogenates were aliquoted in 5 ml/tube and store at −70° C. until use. […] Brain homogenates were diluted to 0.5 mg/mL from original 30 mg/mL volume in Assay Buffer, and 200 μl were added to the assay plate for a final concentration of 100 μg wet weight/assay tube. [^3H]-6 was prepared at […] final concentration in Assay Buffer plus 20% DMSO and 25 μl was added to the assay plate for final assay concentration of 0.25 nM. The assay plate was incubated at room temperature (25° C.) for 90 minutes. […] Filter plates were dried for 1 hour in a vacuum oven and 50 μl/well MicroScint-20 were added. Plates were counted 1 min per well by Packard Topcount. Total amount of radioligand used in the assay was determined by counting 25 μl of 10× ligand stock. […] Tau Ki data for representative compounds of the invention are found in Table 1.

[1] = Table 1, displacement of [^3H]-6 (0.25 nM)
[2] = Table 2, displacement of [^3H]-6 (0.25 nM)

tau, sequence (P10636 2-758 limits assumed): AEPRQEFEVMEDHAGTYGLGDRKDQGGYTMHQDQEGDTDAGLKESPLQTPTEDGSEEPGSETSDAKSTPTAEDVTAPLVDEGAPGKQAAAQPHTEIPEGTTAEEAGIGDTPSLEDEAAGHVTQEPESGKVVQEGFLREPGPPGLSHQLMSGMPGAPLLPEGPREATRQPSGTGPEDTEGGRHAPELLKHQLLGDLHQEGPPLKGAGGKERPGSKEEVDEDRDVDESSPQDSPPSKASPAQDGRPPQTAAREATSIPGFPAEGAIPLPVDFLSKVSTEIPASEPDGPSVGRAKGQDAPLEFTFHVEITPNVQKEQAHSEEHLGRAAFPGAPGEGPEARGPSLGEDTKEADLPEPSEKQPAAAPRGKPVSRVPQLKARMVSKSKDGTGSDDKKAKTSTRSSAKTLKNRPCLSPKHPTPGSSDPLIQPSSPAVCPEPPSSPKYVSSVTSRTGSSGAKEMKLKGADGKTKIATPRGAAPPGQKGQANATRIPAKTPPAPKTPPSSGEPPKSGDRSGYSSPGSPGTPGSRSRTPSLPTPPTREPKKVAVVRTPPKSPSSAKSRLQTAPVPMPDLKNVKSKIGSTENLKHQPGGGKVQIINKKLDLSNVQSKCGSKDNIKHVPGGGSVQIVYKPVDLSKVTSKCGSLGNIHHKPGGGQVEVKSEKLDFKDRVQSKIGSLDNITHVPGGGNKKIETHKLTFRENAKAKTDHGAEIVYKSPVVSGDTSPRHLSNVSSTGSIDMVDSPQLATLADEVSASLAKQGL

SMILES	Ki [1] [nM]	Ki [2] [nM]
Fc1cc2ccn(-c3cc4ccccc4cn3)c2cn1 [Compound 38, 3-(5-fluoro-1H-pyrrolo[2,3-c]pyridin-1-yl)isoquinoline]	52.3	–
Fc1nccc2cnc(-n3ccc4ccncc43)cc12 [Compound 25, 1-fluoro-7-(1H-pyrrolo[2,3-c]pyridin-1-yl)-2,6-naphthyridine]	14.1	–
Oc1ccc2cc(-n3ccc4ccncc43)ncc2c1 [Compound 15, 3-(1H-pyrrolo[2,3-c]pyridin-1-yl)isoquinolin-7-ol]	0.53	–
Nc1c(F)ccc2cnc(-n3ccc4ccncc43)cc12 [Compound 18, 6-fluoro-3-(1H-pyrrolo[2,3-c]pyridin-1-yl)isoquinolin-5-amine]	0.43	–
COc1ccc2nc(-n3ccc4ccncc43)ncc2c1 [Compound 24-4, 6-methoxy-2-(1H-pyrrolo[2,3-c]pyridin-1-yl)quinazoline]	1.55	–
FCCOc1ccc2cc(-n3ccc4ccncc43)ncc2c1 [Compound 16, 7-(2-fluoroethoxy)-3-(1H-pyrrolo[2,3-c]pyridin-1-yl)isoquinoline]	0.41	–
FCCn1ccc(-c2cnc(-n3ccc4ccncc43)nc2)n1 [Compound 29, 1-(5-(1-(2-fluoroethyl)-1H-pyrazol-3-yl)pyrimidin-2-yl)-1H-pyrrolo[2,3-c]pyridine]	2.41	–
Fc1cc(-c2ccc(-n3ccc4ccncc43)nc2)ccn1 [Compound 44, 1-(6′-fluoro-3,4′-bipyridin-6-yl)-1H-pyrrolo[2,3-c]pyridine]	1.13	–
Nc1c(I)ccc2cnc(-n3ccc4ccncc43)cc12 [Compound 119]	–	0.438
c1ccc2cc(-n3ccc4ccncc43)ncc2c1 [Compound 6, 3-(1H-pyrrolo[2,3-c]pyridin-1-yl)isoquinoline]	0.54	–
Nc1cc(F)c2cnc(-n3ccc4ccncc43)cc2c1 [Compound 113]	–	0.784
OC1CCN(c2ccc(-n3ccc4ccncc43)nc2)CC1 [Compound 42, 1-(6-(1H-pyrrolo[2,3-c]pyridin-1-yl)pyridin-3-yl)piperidin-4-ol]	71.1	–
Cc1cc(-n2ccc3ccncc32)ncc1OCCF [Compound 32, 1-(5-(2-fluoroethoxy)-4-methylpyridin-2-yl)-1H-pyrrolo[2,3-c]pyridine]	2.98	–
COc1ccc2cc(-n3ccc4ccncc43)ncc2c1 [Compound 13, 7-methoxy-3-(1H-pyrrolo[2,3-c]pyridin-1-yl)isoquinoline]	0.29	–
Nc1cc(-c2ccc(-n3ccc4ccncc43)nc2)ccn1 [Compound 99]	0.55	–
ClCCC1CCN(c2ccc(-n3ccc4ccncc43)nc2)CC1 [Compound 31, 1-(5-(4-(2-chloroethyl)piperidin-1-yl)pyridin-2-yl)-1H-pyrrolo[2,3-c]pyridine]	2.88	–
Nc1cc(I)c2cnc(-n3ccc4ccncc43)cc2c1 [Compound 125]	–	18.6
COc1cccc2cc(-n3ccc4ccncc43)ncc12 [Compound 103]	0.32	–
Nc1cccc2cnc(-n3ccc4ccnc(F)c43)cc12 [Compound 107]	–	10000
Nc1cc2cc(-n3ccc4ccncc43)ncc2cc1F [Compound 109]	–	0.423
CN(CCO)c1ccc2cnc(-n3ccc4ccncc43)cc2c1 [Compound 66]	4.07	–
c1cc2ccn(-c3ccc(-c4cncs4)cn3)c2cn1 [Compound 53]	1.02	–
COc1cccc2cnc(-n3ccc4ccncc43)cc12 [Compound 70]	44.4	–
c1cc2cnc(-n3ccc4ccncc43)cc2cn1 [Compound 26, 3-(1H-pyrrolo[2,3-c]pyridin-1-yl)-2,6-naphthyridine]	2.27	–
Nc1cc(F)cc2cnc(-n3ccc4ccncc43)cc12 [Compound 115]	–	0.224
FCOc1ccc2nc(-n3ccc4ccncc43)ncc2c1 [Compound 24, 6-(fluoromethoxy)-2-(1H-pyrrolo[2,3-c]pyridin-1-yl)quinazoline]	12.8	–
FCCNc1ccc(-n2ccc3ccncc32)nc1 [Compound 36, N-(2-fluoroethyl)-6-(1H-pyrrolo[2,3-c]pyridin-1-yl)pyridin-3-amine]	4.96	–
CC#Cc1cnc(-n2ccc3ccncc32)cc1CF [Compound 21, 1-(4-(fluoromethyl)-5-(prop-1-ynyl)pyridin-2-yl)-1H-pyrrolo[2,3-c]pyridine]	4.1	–

SMILES	Ki [1] [nM]	Ki [2] [nM]
OCCC1CCN(c2ccc(-n3ccc4ccncc43)nc2)CC1 [Compound 31-1, 2-(1-(6-(1H-pyrrolo[2,3-c]pyridin-1-yl)pyridin-3-yl)piperidin-4-yl)ethanol]	3.54	–
Nc1ccc2cnc(-n3ccc4ccncc43)cc2c1I [Compound 118]	–	24.5
Nc1ccc(I)c2cnc(-n3ccc4ccncc43)cc12 [Compound 123]	–	208
C#Cc1cnc(-n2ccc3ccncc32)cc1C [Compound 50]	0.75	–
Cn1cnc(-c2ccc(-n3ccc4ccncc43)nc2)c1 [Compound 65]	3.42	–
CN(C)c1ccc(-c2ccc(-n3ccc4ccncc43)nc2)cn1 [Compound 95]	0.96	–
Cc1cc2cnc(-n3ccc4ccncc43)cc2o1 [Compound 23, 2-methyl-6-(1H-pyrrolo[2,3-c]pyridin-1-yl)furo[3,2-c]pyridine]	2.1	–
CNc1cccc(-c2ccc(-n3ccc4ccncc43)nc2)c1 [Compound 72]	0.76	–
CN(C)c1ccc2cnc(-n3ccc4ccncc43)cc2c1 [Compound 61]	2.23	–
Cn1cc(-c2ccc(-n3ccc4ccncc43)nc2)cn1 [Compound 58]	1.32	–
Nc1cc(I)cc2cc(-n3ccc4ccncc43)ncc12 [Compound 124]	–	1.07
c1cnc(-c2ccc(-n3ccc4ccncc43)nc2)cn1 [Compound 64]	3.17	–
Fc1ccc2cnc(-n3ccc4ccncc43)cc2n1 [Compound 40, 2-fluoro-7-(1H-pyrrolo[2,3-c]pyridin-1-yl)-1,6-naphthyridine]	52.7	–
Cn1ccc(-c2ccc(-n3ccc4ccncc43)nc2)n1 [Compound 63]	2.84	–
Oc1cccc2cc(-n3ccc4ccncc43)ncc12 [Compound 56]	1.16	–
Nc1ccc(-c2ccc(-n3ccc4ccncc43)nc2)cn1 [Compound 100]	1.06	–
Fc1ccc2cnc(-n3ccc4ccncc43)nc2c1 [Compound 68]	8.45	–
Fc1ccc(-c2ccc(-n3ccc4ccncc43)nc2)cn1 [Compound 60]	2.04	–
CCNc1cc(-c2ccc(-n3ccc4ccncc43)nc2)ccn1 [Compound 94]	1.4	–
CNc1ccc(-c2ccc(-n3ccc4ccncc43)nc2)cn1 [Compound 88]	0.69	–
Nc1cc(F)c2cc(-n3ccc4ccncc43)ncc2c1 [Compound 114]	–	0.494
CNc1cc(-c2ccc(-n3ccc4ccncc43)nc2)ccn1 [Compound 93]	0.53	–
c1cc2ccn(-c3cc4cc[nH]c4cn3)c2cn1 [Compound 8, 1-(1H-pyrrolo[2,3-c]pyridin-5-yl)-1H-pyrrolo[2,3-c]pyridine]	0.48	–
FCOc1ccc2cnc(-n3ccc4ccncc43)cc2c1 [Compound 57]	1.23	–
CC#Cc1cnc(-n2ccc3ccncc32)cc1F [Compound 22, 1-(4-fluoro-5-(prop-1-ynyl)pyridin-2-yl)-1H-pyrrolo[2,3-c]pyridine]	1.43	–
Cc1cc(-n2ccc3ccncc32)ncc1C#CCF [Compound 51]	0.87	–
Nc1ccc2cc(-n3ccc4ccncc43)ncc2c1F [Compound 108]	–	0.677

Reference: patent publication US10022461B2, “Pyrrolo[2,3-C]pyridines as imaging agents for neurofibrilary tangles” (MERCK SHARP & DOHME CORP., priority 2014, dated 2018)
